The text below walks through data of patent US20040029774A1, “Composition and methods for the treatment of musculoskeletal disorders and collagen and elastin deficiencies” (priority 2002, published 2004).

The nature of data set [1]: Solubility of rejuvenating ingredients in acidified deionized water mimicking the stomach. Here is the method: In order to determine the amount of rejuvenating-nutrient that may be completely dissolved in water under conditions similar to that of stomach, the following study was executed: Deionized water was heated to 98° F.-99° F. to mimic the temperature of the human body. Adjustment of pH of the water to 2.7-2.9 was accomplished using hydrochloric acid to effect acidic conditions of the human stomach. […] Water/joints products were placed in a heated water bath with continuous agitation. Solubility of various joints products was compared at 30 minutes, one hour and two hours.
The following data reflect the percentage of product solubilized compared to added concentration at 0 minutes: […]

For data set [2] the following is noted: cited from earlier work.

For `N[C@H]1C(O)O[C@H](CO)[C@@H](O)[C@@H]1O` (some centres unmarked) [GLUCOSAMINE, Glucosamine], the “% SOLUBILITY 2 HRS.” value in data set [1] (2 h, pH 2.7) is 30%.

On to `CS(C)(=O)=O` [MSM, Methyl-Sulfonyl-Methane], for which, in data set [1] (1 h, pH 2.7), the “% SOLUBILITY 1 HR.” value stood at 20%. The “% SOLUBILITY 2 HRS.” value in data set [1] (2 h, pH 2.7) worked out at 30%.

Consider `N[C@H]1C(O)O[C@H](CO)[C@@H](O)[C@@H]1O.O=S(=O)(O)O` (some centres unmarked) [glucosamine sulfate], for which, in data set [2] (after discontinuation of oral administration), the “Clinical improvement of symptoms, persistence” value is listed as “up to four weeks”. Further, the “Clinical improvement of symptoms, onset” value in data set [2] (after oral administration) is reported as “as early as one week”.

On to Chondroitin sulfate, for which the “% SOLUBILITY 30 MINS.” value in data set [1] (10% concentration, water 98-99° F., pH 2.7-2.9) stood at 100%; in data set [1] (30% concentration, water 98-99° F., pH 2.7-2.9), 100%; in data set [1] (50% concentration, water 98-99° F., pH 2.7-2.9), 100%; in data set [1] (70% concentration, water 98-99° F., pH 2.7-2.9) it was 20%. The “soluble at 50% concentration” value in data set [1] (50% concentration, water 98-99° F., pH 2.7-2.9, time not given) was determined as 100%. Moreover, the “% SOLUBILITY 1 HR.” value in data set [1] (70% concentration, water 98-99° F., pH 2.7-2.9, one hour) is 20%. The “% SOLUBILITY 2 HRS.” value in data set [1] (70% concentration, water 98-99° F., pH 2.7-2.9, two hours) is given as 20%.

Take Gelatin: in data set [1] (pH 2.7), the “% SOLUBILITY 1 HR.” value was 10% and the “% SOLUBILITY 2 HRS.” value came to 15%.
